Data reported in EPA's ToxRefDB 2.

Tests used:
dog [1] = conditions: Chronic toxicity, beagle, Oral, Capsule, dose end: 28 day, group: systemic
mouse [2] = conditions: Carcinogenicity, cd1, Oral, Feed, dose end: 113 week, group: systemic
dog [3] = conditions: Chronic toxicity; beagle; Oral; Capsule; dose end: 12 month; group: systemic; systemic / in life observation / body weight / body weight gain + systemic / clinical chemistry / albumin / albumin + systemic / clinical …
rat [4] = conditions: Chronic toxicity, fischer, Oral, Feed, dose end: 24 month, group: systemic
rabbit [5] = conditions: Prenatal developmental toxicity study, new zealand white, Oral, Gavage/Intubation, dose end: 28 GD
rat [6] = conditions: Combined chronic toxicity/carcinogenicity, sprague dawley, Oral, Feed, dose end: 104 week, group: systemic
rabbit [7] = conditions: Prenatal developmental toxicity study, new zealand white, Oral, Gavage/Intubation, dose end: 19 GD
rabbit [8] = conditions: Prenatal developmental toxicity study, new zealand white, Oral, Gavage/Intubation, dose end: 18 GD
rat [9] = conditions: Prenatal developmental toxicity study, sprague dawley, Oral, Gavage/Intubation, dose end: 19 GD
mouse [10] = conditions: Carcinogenicity, b6c3f1, Oral, Feed, dose end: 104 week, group: systemic
rat [11] = conditions: Multigenerational reproductive toxicity study, sprague dawley, Oral, Feed, dose end: 2 generation
rat [12] = conditions: Combined chronic toxicity/carcinogenicity, fischer, Oral, Gavage/Intubation, dose end: 103 week, group: systemic
mouse [13] = conditions: Combined chronic toxicity/carcinogenicity, b6c3f1, Oral, Gavage/Intubation, dose end: 103 week, group: systemic
[14] = systemic / in life observation / clinical signs / emesis + systemic / organ weight / liver / absolute + systemic / organ weight / brain / …
[15] = systemic / hematology / hematocrit (hct) / hematocrit (hct) + systemic / in life observation / clinical signs / weakness + systemic / …
[16] = systemic / pathology microscopic / stomach / hyperkeratosis
[17] = systemic / pathology microscopic / stomach / hyperkeratosis + systemic / in life observation / body weight / body weight gain + systemic / …
[18] = group: developmental, developmental / developmental malformation / bone / domed head + developmental / developmental malformation / bone / misshapen fontanel + …
[19] = group: maternal, systemic / in life observation / food consumption / food consumption
[20] = systemic / pathology microscopic / stomach / acanthosis + systemic / pathology microscopic / stomach / erosion + systemic / pathology …
[21] = systemic / pathology microscopic / testes / interstitial cell tumor nos + systemic / pathology microscopic / thyroid gland / adenoma/…
[22] = group: developmental, developmental / developmental malformation / bone / unossified
[23] = group: developmental, developmental / developmental malformation / bone / unossified + developmental / developmental malformation / bone / delayed ossification + …
[24] = group: maternal, systemic / in life observation / body weight / body weight gain + systemic / in life observation / food consumption / food consumption + …
[25] = group: developmental, developmental / developmental malformation / bone / [other] + developmental / developmental malformation / bone / misshapen fontanel + …
[26] = group: maternal, reproductive / reproductive performance / aborted / aborted + reproductive / reproductive performance / resorptions / resorptions + systemic…
[27] = group: developmental, developmental / developmental malformation / bone / incomplete ossification + developmental / developmental malformation / bone / misaligned…
[28] = group: maternal, systemic / in life observation / body weight / body weight gain + systemic / in life observation / clinical signs / respiration (rales)
[29] = group: maternal, systemic / in life observation / body weight / body weight gain + systemic / in life observation / clinical signs / respiration (rales) + …
[30] = systemic / pathology microscopic / stomach / hyperkeratosis + systemic / pathology microscopic / intestine small / carcinoma + systemic / …
[31] = systemic / pathology microscopic / stomach / hyperkeratosis + systemic / pathology microscopic / intestine small / hyperplasia + systemic / …
[32] = group: offspring, systemic / in life observation / body weight / offspring (pup) weight
[33] = group: parental, systemic / in life observation / body weight / body weight + systemic / in life observation / body weight / body weight gain + systemic / in…
[34] = group: reproductive, reproductive / reproductive performance / fertility / fertility
[35] = systemic / pathology microscopic / blood / leukemia mononuclear + systemic / in life observation / body weight / body weight
[36] = systemic / pathology microscopic / liver / vacuolization cytoplasmic
[37] = systemic / pathology microscopic / liver / vacuolization cytoplasmic + systemic / in life observation / body weight / body weight

O=C1c2ccccc2C(=O)N1SC(Cl)(Cl)Cl [Folpet]
LOAEL (dog [1]; systemic / in life observation / body weight / body weight gain + systemic / in life observation / body weight / body weight): 60 mg/kg/day | NOAEL (dog [1]; systemic / in life observation / body weight / body weight gain + systemic / in life observation / body weight / body weight + systemic / in…): 20 mg/kg/day | LEL (dog [1]; [14]): 20 mg/kg/day | NEL (dog [1]; [14]): < 20 mg/kg/day | LEL (mouse [2]; [15]): 93 mg/kg/day | NEL (mouse [2]; [15]): < 93 mg/kg/day | LOAEL (mouse [2]; systemic / pathology microscopic / intestine small / hyperplasia): 1280 mg/kg/day | NOAEL (mouse [2]; systemic / pathology microscopic / intestine small / hyperplasia + systemic / pathology microscopic / intestine small / adenocarcinoma + …): 502 mg/kg/day | LEL (dog [3]): 60 mg/kg/day | LOAEL (dog [3]): 60 mg/kg/day | NEL (dog [3]): 10 mg/kg/day | NOAEL (dog [3]): 10 mg/kg/day | LEL (rat [4]; [16]): 81 mg/kg/day | LOAEL (rat [4]; [16]): 81 mg/kg/day | NEL (rat [4]; [17]): 12 mg/kg/day | NOAEL (rat [4]; [17]): 12 mg/kg/day | LEL (rabbit [5]; [18]): 20 mg/kg/day | LOAEL (rabbit [5]; [18]): 20 mg/kg/day | NEL (rabbit [5]; [18]): 10 mg/kg/day | NOAEL (rabbit [5]; [18]): 10 mg/kg/day | LEL (rabbit [5]; [19]): 20 mg/kg/day | LOAEL (rabbit [5]; [19]): 20 mg/kg/day | NEL (rabbit [5]; [19]): 10 mg/kg/day | NOAEL (rabbit [5]; [19]): 10 mg/kg/day | LOAEL (rat [6]; [20]): 35 mg/kg/day | NOAEL (rat [6]; [20]): 9 mg/kg/day | LEL (rat [6]; [21]): 9 mg/kg/day | NEL (rat [6]; [21]): < 9 mg/kg/day | LEL (rabbit [7]; [22]): 40 mg/kg/day | LOAEL (rabbit [7]; [22]): 40 mg/kg/day | NEL (rabbit [7]; [23]): 10 mg/kg/day | NOAEL (rabbit [7]; [23]): 10 mg/kg/day | LOAEL (rabbit [7]; group: maternal, systemic / in life observation / body weight / body weight gain + systemic / in life observation / food consumption / food consumption): 160 mg/kg/day | LEL (rabbit [7]; [24]): 160 mg/kg/day | NEL (rabbit [7]; [24]): 40 mg/kg/day | NOAEL (rabbit [7]; [24]): 40 mg/kg/day | LEL (rabbit [8]; [25]): 60 mg/kg/day | LOAEL (rabbit [8]; [25]): > 60 mg/kg/day | NEL (rabbit [8]; [25]): < 60 mg/kg/day | NOAEL (rabbit [8]; [25]): ≥ 60 mg/kg/day | LEL (rabbit [8]; [26]): 60 mg/kg/day | LOAEL (rabbit [8]; [26]): > 60 mg/kg/day | NEL (rabbit [8]; [26]): < 60 mg/kg/day | NOAEL (rabbit [8]; [26]): ≥ 60 mg/kg/day | LEL (rat [9]; [27]): 360 mg/kg/day | LOAEL (rat [9]; [27]): 360 mg/kg/day | NEL (rat [9]; [27]): 60 mg/kg/day | NOAEL (rat [9]; [27]): 60 mg/kg/day | LEL (rat [9]; [28]): 60 mg/kg/day | LOAEL (rat [9]; [28]): 60 mg/kg/day | NEL (rat [9]; [29]): 10 mg/kg/day | NOAEL (rat [9]; [29]): 10 mg/kg/day | LOAEL (mouse [10]; [30]): 150 mg/kg/day | NOAEL (mouse [10]; [30]): < 150 mg/kg/day | LEL (mouse [10]; [31]): 150 mg/kg/day | NEL (mouse [10]; [31]): < 150 mg/kg/day | LEL (rat [11]; [32]): 180 mg/kg/day | LOAEL (rat [11]; [32]): 180 mg/kg/day | NEL (rat [11]; [32]): 40 mg/kg/day | NOAEL (rat [11]; [32]): 40 mg/kg/day | LOAEL (rat [11]; [33]): 180 mg/kg/day | NEL (rat [11]; [33]): 10 mg/kg/day | NOAEL (rat [11]; [33]): 40 mg/kg/day | LEL (rat [11]; group: parental, systemic / in life observation / food consumption / food consumption): 40 mg/kg/day | LEL (rat [11]; [34]): 180 mg/kg/day | LOAEL (rat [11]; [34]): 180 mg/kg/day | NEL (rat [11]; [34]): 40 mg/kg/day | NOAEL (rat [11]; [34]): 40 mg/kg/day

C=CCN=C=S [Allyl isothiocyanate]
LOAEL (rat [12]; systemic / in life observation / body weight / body weight): 25 mg/kg/day | NOAEL (rat [12]; systemic / in life observation / body weight / body weight + systemic / pathology microscopic / blood / leukemia mononuclear + systemic / …): 12 mg/kg/day | LEL (rat [12]; [35]): 12 mg/kg/day | NEL (rat [12]; [35]): < 12 mg/kg/day | LEL (mouse [13]; [36]): 12 mg/kg/day | NEL (mouse [13]; [36]): < 12 mg/kg/day | LOAEL (mouse [13]; [37]): > 25 mg/kg/day | NOAEL (mouse [13]; [37]): ≥ 25 mg/kg/day
